From ChEMBL document CHEMBL5325401, “Computer-aided identification, synthesis, and biological evaluation of DNA polymerase η inhibitors for the treatment of cancer” (Eur J Med Chem, 2023)

How the values were obtained:
DNA polymerase eta [1] = target: T1, DNA polymerase eta (Homo sapiens, UniProt Q9Y253); experiment: Inhibition of 6xHis-tagged human DNA polymerase eta (1 to 437 residues) expressed in Escherichia coli BL21 DE3 assessed as displacement of reporter strand using 5'-TTT TTT TTG C-TAMRA-3' reporter/5'-TCA CCC TCG TAC GAC TCT T-3' primer/5'-BHQ2-GCAAAAAAAAAAGAGTCGTACGAGGGTGA-3' template of 1:1.5:1.5 as DNA substrate preincubated for 5 to 10 mins followed by substrate addition measured immediately in presence of dTTP/MgCl2 by fluorescence based assay
T1 sequence (Q9Y253 whole entry): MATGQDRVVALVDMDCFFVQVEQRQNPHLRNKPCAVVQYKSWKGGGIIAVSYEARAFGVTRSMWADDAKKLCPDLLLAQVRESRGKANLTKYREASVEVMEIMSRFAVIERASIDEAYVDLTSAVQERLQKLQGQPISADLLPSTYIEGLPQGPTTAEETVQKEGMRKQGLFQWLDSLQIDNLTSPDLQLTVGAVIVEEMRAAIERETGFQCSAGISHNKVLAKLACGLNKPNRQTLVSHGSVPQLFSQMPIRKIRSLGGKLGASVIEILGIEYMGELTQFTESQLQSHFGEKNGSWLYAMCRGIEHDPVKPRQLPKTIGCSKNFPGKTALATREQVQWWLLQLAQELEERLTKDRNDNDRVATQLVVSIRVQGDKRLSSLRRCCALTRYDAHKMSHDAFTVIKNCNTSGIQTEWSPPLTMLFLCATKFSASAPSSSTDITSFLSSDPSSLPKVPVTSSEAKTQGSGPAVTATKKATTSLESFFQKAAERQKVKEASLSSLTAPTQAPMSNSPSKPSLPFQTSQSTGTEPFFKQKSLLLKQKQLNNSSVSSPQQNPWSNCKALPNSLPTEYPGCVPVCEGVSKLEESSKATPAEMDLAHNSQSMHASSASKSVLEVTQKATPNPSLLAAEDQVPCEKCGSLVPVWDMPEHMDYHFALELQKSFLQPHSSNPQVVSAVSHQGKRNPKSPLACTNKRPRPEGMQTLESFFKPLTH

DNA polymerase eta [2] = target: T1, DNA polymerase eta; experiment: Inhibition of human DNA polymerase eta (1 to 437 residues) using 5'-TTT TTT TTG C-TAMRA-3' reporter/5'-(FAM-TTT)-GGGGGAAGGATTC-3' primer/5'-TCACGGAATCCTTCCCCC-3' template as DNA substrate preincubated for 5 to 10 mins followed by DNA substrate addition measured immediately in presence of dTTP/MgCl2 by fluorescence based assay

Row | SMILES | IC50 (DNA polymerase eta [1]) | IC50 (DNA polymerase eta [2])
1 | O=C1NC(=S)NC(=O)C1=Cc1cn(C(=O)c2ccc3ccccc3c2)c2ccc(Cl)cc12 | 16 µM | –
2 | O=C1NC(=S)NC(=O)C1=Cc1cn(Cc2ccc3ccccc3c2)c2ccc(Cl)cc12 | – | 8 µM
